Measurements reported in patent US20240327364A1, “THERAPEUTIC TARGETING OF GPR68 TO INDUCE FERROPTOSIS” (University Of Maryland, Baltimore, priority 2023, published 2024).

Assays:
[1] = biological target: T1, JAK1(JH1domain-catalytic) (Homo sapiens, UniProt P23458); experiment: KinomeScan; assay type: binding; details: read-out: % Control
T1 construct: JAK1(JH1domain-catalytic); purchased DiscoveRx (Fremont, CA)

LATS1 = biological target: T2, LATS1 (Homo sapiens, UniProt O95835); experiment: KinomeScan; assay type: binding; details: read-out: % Control
T2 construct: purchased DiscoveRx

[2] = biological target: T3, ABL1(F317I)-nonphosphorylated (Homo sapiens, UniProt P00519, F317I); experiment: KinomeScan; assay type: binding; details: read-out: % Control
T3 construct: purchased DiscoveRx

PIK3CA(E542K) = biological target: T4, PIK3CA(E542K) (Homo sapiens, UniProt P42336, E542K); experiment: KinomeScan; assay type: binding; details: read-out: % Control
T4 construct: purchased DiscoveRx (Fremont, CA)

ROS1 = biological target: T5, ROS1 (Homo sapiens, UniProt P08922); experiment: KinomeScan; assay type: binding; details: read-out: % Control
T5 construct: purchased DiscoveRx (Fremont, CA)

MARK2 = biological target: T6, MARK2 (Homo sapiens, UniProt Q7KZI7); experiment: KinomeScan; assay type: binding; details: read-out: % Control
T6 construct: purchased DiscoveRx (Fremont, CA)

5-HT2B = biological target: T7, 5-HT2B (Homo sapiens, UniProt P41595); experiment: GPCR Profiler; assay type: cell-based
T7 construct: host or cells: Chem-1 cells with promiscuous Gα15

ERK1 = biological target: T8, ERK1 (Homo sapiens, UniProt P27361); experiment: KinomeScan; assay type: binding; details: read-out: % Control
T8 construct: purchased DiscoveRx (Fremont, CA)

CAMK1 = biological target: T9, CAMK1 (Homo sapiens, UniProt Q14012); experiment: KinomeScan; assay type: binding; details: read-out: % Control
T9 construct: purchased DiscoveRx (KinomeScan service)

GPR103 = biological target: T10, GPR103 (Homo sapiens, UniProt Q96P65); experiment: GPCR Profiler; assay type: cell-based
T10 construct: host or cells: Chem-1 cells expressing Gα15

SRMS = biological target: T11, SRMS (Homo sapiens, UniProt Q9H3Y6); experiment: KinomeScan; assay type: binding; details: read-out: % Control
T11 construct: purchased DiscoveRx (Fremont, CA)

ADRB2 = biological target: T12, ADRB2 (Homo sapiens, UniProt P07550); experiment: GPCR Profiler; assay type: cell-based
T12 construct: host or cells: Chem-1 cells with promiscuous Gα15

GPR54 = biological target: T13, GPR54 (Homo sapiens, UniProt Q969F8); experiment: GPCR Profiler; assay type: cell-based
T13 construct: host or cells: Chem-1 cells with promiscuous Gα15

RIPK1 = biological target: T14, RIPK1 (Homo sapiens, UniProt Q13546); experiment: KinomeScan; assay type: binding; details: read-out: % Control
T14 construct: purchased DiscoveRx (Fremont, CA)

M4 = biological target: T15, M4 (Homo sapiens, UniProt P08173); experiment: GPCR Profiler; assay type: cell-based
T15 construct: host or cells: Chem-1 cells with promiscuous Gα15

DP = biological target: T16, DP (Homo sapiens, UniProt Q13258); experiment: GPCR Profiler; assay type: cell-based
T16 construct: host or cells: Chem-1 cells expressing Gα15

D4 = biological target: T17, D4 (Homo sapiens, UniProt P21917); experiment: GPCR Profiler; assay type: cell-based
T17 construct: host or cells: Chem-1 cells expressing Gα15

FLT3(R834Q) = biological target: T18, FLT3(R834Q) (Homo sapiens, UniProt P36888, R834Q); experiment: KinomeScan; assay type: binding; details: read-out: % Control
T18 construct: purchased DiscoveRx (Fremont, CA)

DDR1 = biological target: T19, DDR1 (Homo sapiens, UniProt Q08345); experiment: KinomeScan; assay type: binding; details: read-out: % Control
T19 construct: purchased DiscoveRx (Fremont, CA), KinomeScan service

DAPK3 = biological target: T20, DAPK3 (Homo sapiens, UniProt O43293); experiment: KinomeScan; assay type: binding; details: read-out: % Control
T20 construct: purchased DiscoveRx (Fremont, CA), KinomeScan service

YANK3 = biological target: T21, YANK3 (Homo sapiens, UniProt Q86UX6); experiment: KinomeScan; assay type: binding; details: read-out: % Control
T21 construct: purchased DiscoveRx

[3] = biological target: T22, ABL1(H396P)-phosphorylated (Homo sapiens, UniProt P00519, H396P); experiment: KinomeScan; assay type: binding; details: read-out: % Control
T22 construct: purchased DiscoveRx

REC-1 = experiment: Cell Titer-Glo viability, B-cell lymphoma; assay type: cell-based; details: 72 hours
Method: OGM2 kills wide variety of cancer cell types. Cell sensitivity can be classified in to Very Sensitive (LC50<2 μM), Sensitive (LC50=2 to 10 μM), Mildly Sensitive (LC50>10 μM), and Refractory (no killing at 10 μM). The listed established cell were incubated with OGM2 at 2 μM or 10 μM for 72 hours under standard cell culture conditions, and relative cell number was assessed using Cell Titer-Glo Luminescent Cell Viability Assay (Promega™) following the manufacturer's instructions. Luminescence was determined using a Cytation 5 reader and Gen5 software package (BioTek™).
Cancer cells, which are very sensitive to killing by OGM2 (LCs <2 μM), with reported mRNA expression of GPR68 and the related proton sensing receptor GPR4. LC50's (concentrations causing 50% lethality) were determined using CellTiter-Glo (Promega™, G7570). Cells were plated in 12-well plates (CELLTREAT Scientific Products, 229112) in 1 ml of DMEM with high glucose, GlutaMAX, HEPES, or RPMI 1640 with Penicillin-Streptomycin (ThermoFisher™, 10564029, 11875119 and 15140122) and 10% FBS. Cells were incubated overnight at 37° C. in 5% CO2. Then 1 mL of fresh media was added with DMSO, OGM, or positive control (Erastin; APExBIO Technology, LLC, B1524) and cells incubated for 3 days. On the third day, all media was removed, cells were rinsed with 1×PBS, PBS was removed, and 200 μL of 1× Passive Lysis Buffer (Promega™, E1941) was added to each well. […]. […] Plates were briefly spun down and read on a GloMax-Multi Detection System (Promega™).
The cells listed in the tables above were incubated with OGM2 at 2 μM or 10 μM for 72 hours under standard cell culture conditions, and relative cell number was assessed using Cell Titer-Glo Luminescent Cell Viability Assay (Promega™) following the manufacturer's instructions. Luminescence was determined using a Cytation 5 reader and Gen5 software package (BioTek™). […] The consensus normalized expression value (“nTPM”=normalize transcript per million) was calculated as the maximum nTPM value for each gene in the two data sources.

T17 sequence (P21917 whole entry): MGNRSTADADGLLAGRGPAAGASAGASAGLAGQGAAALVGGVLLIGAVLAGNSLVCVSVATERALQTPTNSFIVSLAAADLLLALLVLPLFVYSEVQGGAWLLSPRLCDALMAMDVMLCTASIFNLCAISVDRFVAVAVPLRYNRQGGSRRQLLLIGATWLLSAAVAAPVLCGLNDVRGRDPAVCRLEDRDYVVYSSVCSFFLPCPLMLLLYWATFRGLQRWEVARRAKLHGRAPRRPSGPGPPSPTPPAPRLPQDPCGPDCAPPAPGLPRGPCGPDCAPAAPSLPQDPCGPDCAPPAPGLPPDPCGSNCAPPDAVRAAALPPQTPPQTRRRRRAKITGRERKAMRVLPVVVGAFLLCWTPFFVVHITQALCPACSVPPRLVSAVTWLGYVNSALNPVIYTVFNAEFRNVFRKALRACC
T13 sequence (Q969F8 whole entry, species assumed): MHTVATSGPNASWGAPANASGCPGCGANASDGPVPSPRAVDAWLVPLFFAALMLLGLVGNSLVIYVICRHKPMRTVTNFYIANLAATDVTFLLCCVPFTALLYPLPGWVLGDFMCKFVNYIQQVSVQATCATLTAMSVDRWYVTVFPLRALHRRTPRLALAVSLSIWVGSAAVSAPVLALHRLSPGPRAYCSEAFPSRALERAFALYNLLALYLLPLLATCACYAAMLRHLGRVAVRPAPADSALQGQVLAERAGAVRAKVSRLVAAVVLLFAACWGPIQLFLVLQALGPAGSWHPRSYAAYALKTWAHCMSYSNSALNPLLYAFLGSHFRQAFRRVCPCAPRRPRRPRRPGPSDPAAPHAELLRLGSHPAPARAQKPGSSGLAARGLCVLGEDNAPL
T10 sequence (Q96P65 whole entry): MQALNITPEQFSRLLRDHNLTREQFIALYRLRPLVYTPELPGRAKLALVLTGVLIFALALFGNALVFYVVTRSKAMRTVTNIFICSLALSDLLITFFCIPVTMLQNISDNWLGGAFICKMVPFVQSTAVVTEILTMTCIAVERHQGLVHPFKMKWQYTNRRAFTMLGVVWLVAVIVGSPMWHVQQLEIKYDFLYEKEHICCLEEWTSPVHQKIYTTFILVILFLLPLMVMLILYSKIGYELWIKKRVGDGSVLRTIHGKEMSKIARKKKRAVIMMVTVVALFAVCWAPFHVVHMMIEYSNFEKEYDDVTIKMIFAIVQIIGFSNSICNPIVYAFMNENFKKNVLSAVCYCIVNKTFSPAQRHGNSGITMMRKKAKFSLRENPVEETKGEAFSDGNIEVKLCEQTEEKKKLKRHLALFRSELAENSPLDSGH
T15 sequence (P08173 whole entry): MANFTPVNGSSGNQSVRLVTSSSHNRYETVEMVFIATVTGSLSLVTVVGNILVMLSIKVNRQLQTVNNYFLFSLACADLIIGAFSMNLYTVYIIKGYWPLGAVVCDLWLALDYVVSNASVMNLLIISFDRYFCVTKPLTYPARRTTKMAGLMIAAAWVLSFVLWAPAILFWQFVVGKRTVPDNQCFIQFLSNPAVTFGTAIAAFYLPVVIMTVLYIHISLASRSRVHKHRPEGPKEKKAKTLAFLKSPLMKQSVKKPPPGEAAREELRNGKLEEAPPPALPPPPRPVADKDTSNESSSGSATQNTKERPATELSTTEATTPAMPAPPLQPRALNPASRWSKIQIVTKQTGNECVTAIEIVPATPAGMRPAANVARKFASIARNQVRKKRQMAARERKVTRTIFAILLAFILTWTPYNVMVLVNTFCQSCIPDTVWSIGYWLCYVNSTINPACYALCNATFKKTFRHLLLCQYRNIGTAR
T12 sequence (P07550 whole entry, species assumed): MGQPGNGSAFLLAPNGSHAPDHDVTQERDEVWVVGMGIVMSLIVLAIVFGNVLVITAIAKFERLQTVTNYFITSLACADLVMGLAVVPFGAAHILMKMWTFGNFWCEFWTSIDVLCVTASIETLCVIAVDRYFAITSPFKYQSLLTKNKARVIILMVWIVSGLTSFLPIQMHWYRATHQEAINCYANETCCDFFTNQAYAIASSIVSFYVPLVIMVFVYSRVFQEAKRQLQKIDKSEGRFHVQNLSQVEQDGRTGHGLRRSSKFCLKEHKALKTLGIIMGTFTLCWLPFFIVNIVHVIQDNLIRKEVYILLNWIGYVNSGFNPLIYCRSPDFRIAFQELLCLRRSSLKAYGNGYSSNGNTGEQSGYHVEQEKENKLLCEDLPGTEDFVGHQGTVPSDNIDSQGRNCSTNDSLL
T16 sequence (Q13258 whole entry): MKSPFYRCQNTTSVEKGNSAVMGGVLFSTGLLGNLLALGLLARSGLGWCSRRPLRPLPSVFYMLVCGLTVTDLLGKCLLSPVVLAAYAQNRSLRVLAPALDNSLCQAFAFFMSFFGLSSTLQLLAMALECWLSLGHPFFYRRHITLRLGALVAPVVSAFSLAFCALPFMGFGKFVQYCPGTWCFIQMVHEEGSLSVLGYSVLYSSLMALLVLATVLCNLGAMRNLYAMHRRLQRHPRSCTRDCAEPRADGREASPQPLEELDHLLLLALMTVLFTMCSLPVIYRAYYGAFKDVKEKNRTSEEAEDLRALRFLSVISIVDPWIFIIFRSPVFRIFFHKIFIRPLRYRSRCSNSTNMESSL
T7 sequence (P41595 whole entry): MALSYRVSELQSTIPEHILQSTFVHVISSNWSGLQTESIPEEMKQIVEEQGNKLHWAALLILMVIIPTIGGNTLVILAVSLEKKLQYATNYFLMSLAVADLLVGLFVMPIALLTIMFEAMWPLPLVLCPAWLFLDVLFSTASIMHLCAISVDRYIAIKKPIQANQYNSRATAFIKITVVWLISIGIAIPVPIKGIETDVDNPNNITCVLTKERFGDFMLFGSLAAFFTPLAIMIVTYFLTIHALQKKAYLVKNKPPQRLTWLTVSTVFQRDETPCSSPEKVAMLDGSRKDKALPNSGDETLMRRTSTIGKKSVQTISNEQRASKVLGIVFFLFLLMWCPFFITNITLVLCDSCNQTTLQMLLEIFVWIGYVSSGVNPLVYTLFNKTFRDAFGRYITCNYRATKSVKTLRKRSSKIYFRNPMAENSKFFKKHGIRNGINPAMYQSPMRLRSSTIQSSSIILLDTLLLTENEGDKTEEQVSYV
T20 sequence (O43293 whole entry): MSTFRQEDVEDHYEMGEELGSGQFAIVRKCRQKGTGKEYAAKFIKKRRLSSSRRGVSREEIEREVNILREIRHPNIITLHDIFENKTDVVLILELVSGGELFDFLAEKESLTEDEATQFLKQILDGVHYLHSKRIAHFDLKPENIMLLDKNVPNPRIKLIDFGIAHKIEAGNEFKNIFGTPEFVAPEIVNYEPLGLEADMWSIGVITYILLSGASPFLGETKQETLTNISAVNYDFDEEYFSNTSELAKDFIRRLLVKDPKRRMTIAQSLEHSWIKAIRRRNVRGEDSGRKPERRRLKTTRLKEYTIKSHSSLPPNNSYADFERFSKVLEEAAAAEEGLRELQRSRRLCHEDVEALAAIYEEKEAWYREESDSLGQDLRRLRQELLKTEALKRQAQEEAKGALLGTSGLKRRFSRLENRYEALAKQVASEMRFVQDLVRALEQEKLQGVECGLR
T1 sequence (P23458 875-1153 limits assumed): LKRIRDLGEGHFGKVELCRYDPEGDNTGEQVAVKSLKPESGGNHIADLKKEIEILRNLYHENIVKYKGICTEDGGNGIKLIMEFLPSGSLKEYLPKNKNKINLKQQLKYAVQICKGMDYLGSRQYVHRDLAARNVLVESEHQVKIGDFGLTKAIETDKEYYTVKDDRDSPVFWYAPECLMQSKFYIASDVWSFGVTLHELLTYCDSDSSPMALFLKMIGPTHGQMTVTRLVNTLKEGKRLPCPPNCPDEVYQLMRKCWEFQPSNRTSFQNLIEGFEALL
T4 sequence (P42336 whole entry E542K): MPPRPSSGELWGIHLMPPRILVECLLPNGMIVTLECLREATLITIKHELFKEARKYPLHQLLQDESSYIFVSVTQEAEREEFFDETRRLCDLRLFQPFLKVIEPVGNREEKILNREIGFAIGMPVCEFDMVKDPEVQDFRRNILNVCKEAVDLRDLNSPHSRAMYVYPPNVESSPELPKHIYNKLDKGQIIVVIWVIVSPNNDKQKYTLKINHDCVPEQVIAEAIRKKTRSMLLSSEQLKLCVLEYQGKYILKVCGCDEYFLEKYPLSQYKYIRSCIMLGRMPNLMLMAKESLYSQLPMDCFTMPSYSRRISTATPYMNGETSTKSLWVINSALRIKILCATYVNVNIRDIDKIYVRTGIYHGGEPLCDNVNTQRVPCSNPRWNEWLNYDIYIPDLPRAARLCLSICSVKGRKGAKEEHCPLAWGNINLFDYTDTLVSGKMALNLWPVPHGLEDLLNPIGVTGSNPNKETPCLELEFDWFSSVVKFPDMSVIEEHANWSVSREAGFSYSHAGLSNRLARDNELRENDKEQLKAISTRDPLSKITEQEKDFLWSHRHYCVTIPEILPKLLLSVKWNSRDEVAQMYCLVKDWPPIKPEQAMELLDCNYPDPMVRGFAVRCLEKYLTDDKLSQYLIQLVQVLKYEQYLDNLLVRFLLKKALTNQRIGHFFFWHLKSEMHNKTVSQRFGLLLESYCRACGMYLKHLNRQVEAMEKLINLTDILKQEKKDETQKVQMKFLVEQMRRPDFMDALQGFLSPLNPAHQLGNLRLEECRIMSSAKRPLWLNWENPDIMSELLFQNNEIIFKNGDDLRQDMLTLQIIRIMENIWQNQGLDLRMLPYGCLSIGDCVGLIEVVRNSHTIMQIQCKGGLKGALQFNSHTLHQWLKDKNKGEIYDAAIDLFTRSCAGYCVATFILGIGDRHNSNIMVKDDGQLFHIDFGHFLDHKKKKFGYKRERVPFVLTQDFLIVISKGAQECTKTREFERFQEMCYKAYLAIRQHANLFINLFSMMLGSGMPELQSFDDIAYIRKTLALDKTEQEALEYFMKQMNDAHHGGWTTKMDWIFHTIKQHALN

With `CCc1ccc2c(c1)C1(NN=C(c3cccc4ccccc34)S1)C(=O)N2` (centres unmarked) [OGM1, 5-ethyl-5′-naphthalen-1-ylspiro[1H-indole-3,2′-3H-1,3,4-thiadiazole]-2-one] the remaining binding at 10 µM [1] was 59%, the remaining binding at 10 µM (LATS1) was 100% and the remaining binding at 10 µM [2] was 100%. The remaining binding at 10 µM (PIK3CA(E542K)) was 73%, the remaining binding at 10 µM (ROS1) was 100% and the remaining binding at 10 µM (MARK2) was 100%. For the same molecule, the Antagonism (5-HT2B; 10 uM) was 0.3, the Agonism (5-HT2B; 12.5 uM) was −0.1 and the remaining binding at 10 µM (ERK1) was 100%. The remaining binding at 10 µM (CAMK1) was 50%, the Antagonism (GPR103; 10 uM) was −7 and the Agonism (GPR103; 12.5 uM) was −0.1. For the same molecule, the remaining binding at 10 µM (SRMS) was 80%, the Antagonism (ADRB2; 10 uM) was −9.5 and the Agonism (ADRB2; 12.5 uM) was −0.1. It also gave an Antagonism (GPR54; 10 uM) of −5.8, an Agonism (GPR54; 12.5 uM) of −0.6 and a remaining binding at 10 µM (RIPK1) of 100%. For the same molecule, the Antagonism (M4; 10 uM) was −2.8, the Agonism (M4; 12.5 uM) was −0.6 and the Antagonism (DP; 10 uM) was −11.7. The Agonism (DP; 12.5 uM) was 0.8, the Antagonism (D4; 10 uM) was −16.3 and the Agonism (D4; 12.5 uM) was 0.6. For the same molecule, the remaining binding at 10 µM (FLT3(R834Q)) was 100%, the remaining binding at 10 µM (DDR1) was 100% and the remaining binding at 10 µM (DAPK3) was 91%. For the same molecule, the remaining binding at 10 µM (YANK3) was 100% and the remaining binding at 10 µM [3] was 83%.
`CCc1ccc2c(c1)C1(NN=C(c3ccccc3)S1)C(=O)N2` (centres unmarked) [OGM2] was tested, and the “% Survival 2 μM OGM” value (REC-1) was 0.7%, the “% Survival 10 μM OGM” value (REC-1) was 0.0% and the CC50 (REC-1; Homo sapiens, Rec1, read-out: LC50 (the source's name)) was < 2 µM.
